# Laboratory results taken from ChEMBL document CHEMBL3882724 (2013).
# Tests used:
# [1] = molecular target: T1, Steroid 17-alpha-hydroxylase/17,20 lyase (Homo sapiens, UniProt P05093); test: Inhibition of CYP17 in human testicular microsomes using 17alpha-hydroxypregnenolone as substrate assessed as decrease in DHEA levels after 90 mins by ELISA; design: species or system Testis
# T1 sequence (P05093 whole entry): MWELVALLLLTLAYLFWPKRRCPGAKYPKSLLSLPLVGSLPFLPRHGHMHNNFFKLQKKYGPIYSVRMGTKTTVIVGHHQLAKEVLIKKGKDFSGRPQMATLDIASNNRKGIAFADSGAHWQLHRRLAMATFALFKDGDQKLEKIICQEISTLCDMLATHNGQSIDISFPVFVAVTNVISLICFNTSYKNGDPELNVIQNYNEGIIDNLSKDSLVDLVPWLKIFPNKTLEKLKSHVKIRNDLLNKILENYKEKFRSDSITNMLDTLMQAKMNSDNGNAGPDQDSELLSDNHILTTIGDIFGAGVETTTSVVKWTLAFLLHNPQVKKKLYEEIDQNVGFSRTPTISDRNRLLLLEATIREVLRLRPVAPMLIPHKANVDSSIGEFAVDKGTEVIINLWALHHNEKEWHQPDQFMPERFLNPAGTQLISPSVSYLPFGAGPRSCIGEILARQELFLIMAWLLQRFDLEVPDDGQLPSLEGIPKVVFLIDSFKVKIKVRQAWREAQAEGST
# [2] = molecular target: T1, Steroid 17-alpha-hydroxylase/17,20 lyase; test: Inhibition of CYP17 in human testicular microsomes using 17alpha-hydroxypregnenolone as substrate assessed as decrease in DHEA levels at 10 nM after 90 mins by ELISA relative to control; design: species or system Testis; conditions: 1.5 h
# [3] = Half life in human liver microsomes at 1 uM by LC-MS/MS analysis
# [4] = Half life in rat liver microsomes at 1 uM by LC-MS/MS analysis
# [5] = molecular target: T1, Steroid 17-alpha-hydroxylase/17,20 lyase; test: Inhibition of CYP17 in human H295R cells assessed as decrease in testosterone levels after 24 hrs by ELISA; type: cell-based
# [6] = molecular target: T2, CYP21 (steroid 21-hydroxylase) (Homo sapiens, UniProt P08686); test: Inhibition of human CYP21 transfected in HEK293 cells assessed as decrease in conversion of progesterone to 11-deoxycorticosterone preincubated for 5 hrs followed by progesterone addition measured after 20 hrs by ELISA; type: cell-based; design: concentration or dose not given beside the values; conditions: HEK293 cells transfected with human CYP21, probe progesterone
# T2 sequence (P08686 whole entry): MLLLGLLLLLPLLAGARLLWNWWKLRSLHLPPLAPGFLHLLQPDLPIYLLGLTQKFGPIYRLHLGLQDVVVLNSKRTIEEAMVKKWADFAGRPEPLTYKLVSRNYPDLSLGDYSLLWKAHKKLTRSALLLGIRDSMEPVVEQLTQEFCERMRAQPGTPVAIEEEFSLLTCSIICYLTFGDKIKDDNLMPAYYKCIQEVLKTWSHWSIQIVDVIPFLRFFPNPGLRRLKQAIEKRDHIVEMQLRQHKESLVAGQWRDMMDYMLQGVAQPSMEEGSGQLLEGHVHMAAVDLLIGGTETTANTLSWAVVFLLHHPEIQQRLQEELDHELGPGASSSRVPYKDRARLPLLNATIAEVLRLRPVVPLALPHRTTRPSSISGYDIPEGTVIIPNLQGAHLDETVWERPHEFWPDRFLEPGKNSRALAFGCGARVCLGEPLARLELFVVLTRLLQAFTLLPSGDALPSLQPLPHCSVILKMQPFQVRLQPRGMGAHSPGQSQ
Compound,IC50 [1] [nM],inhibition at 0.01 µM [2] [%],half-life at 1 µM [3] [min],half-life at 1 µM [4] [min],IC50 [5] [nM],inhibition at 20 h [6] [%]
C[C@]12CC[C@H]3[C@@H](CC[C@H]4C[C@@H](O)CC[C@@]43C)C1=CC=C2c1cccnc1,≤ 11,≥ 80,≥ 50,–,–,–
CN1C(=O)COC[C@@]2(C)C1CC[C@@H]1[C@@H]2CC[C@]2(C)C(c3cccnc3)=CC[C@@H]12 (stereo partly drawn),≤ 11,50 to 80,1 to 10,1 to 10,–,–
C[C@]12CC[C@H]3[C@@H](CC=C4C[C@@H](O)CC[C@@]43C)C1=CC=C2c1cncc(C(F)F)c1,–,–,–,–,15 to 100,< 10
CN(C)CC(=O)O[C@H]1CC[C@@]2(C)C(=CC[C@H]3C4=CC=C(c5cccnc5)[C@@]4(C)CC[C@@H]32)C1,–,–,–,–,15 to 100,≥ 50
C[C@]12CC[C@H]3[C@@H](CCC45CC4C(O)CC[C@]35C)[C@@H]1CC=C2c1cccnc1 (stereo partly drawn),≤ 11,–,–,–,≤ 15,≥ 50
COc1cncc(C2=CC[C@H]3[C@@H]4CC(=O)C5CCCC[C@]5(C)[C@H]4CC[C@]23C)c1 (stereo partly drawn),≤ 11,–,1 to 10,1 to 10,–,–
C[C@]12CC[C@H]3[C@@H](CC[C@H]4C[C@@H](O)CC[C@@]43C)C1=CC=C2n1ccnn1,–,–,1 to 10,1 to 10,–,–
CCCOc1cncc(C2=CC[C@H]3[C@@H]4CCN5CCCCC[C@]5(C)[C@H]4CC[C@]23C)c1,–,50 to 80,10 to 60,10 to 60,–,–
C[C@]12CCCCC[C@@H]1CC[C@@H]1[C@@H]2CC[C@]2(C)C(n3ccnc3)=CC[C@@H]12,≤ 11,50 to 80,10 to 60,10 to 60,–,–
COc1cncc(C2=CC[C@H]3[C@@H]4CC[C@H]5COCCC[C@]5(C)[C@H]4CC[C@]23C)c1,≤ 11,50 to 80,1 to 10,1 to 10,–,–
C[C@]12CCCCC1C(O)C[C@@H]1[C@@H]2CC[C@]2(C)C(n3ccnc3)=CC[C@@H]12 (stereo partly drawn),≤ 11,50 to 80,1 to 50,–,–,–
COc1cncc(C2=CC[C@H]3[C@@H]4CCN5C(=O)CCCC[C@]5(C)[C@H]4CC[C@]23C)c1,≤ 11,≥ 80,1 to 10,1 to 10,–,–
Cc1cncc(C2=CC[C@H]3[C@@H]4CC(O)C5CCCC[C@]5(C)[C@H]4CC[C@]23C)c1 (stereo partly drawn),≤ 11,–,1 to 10,1 to 10,–,–
CCc1cncc(C2=CC[C@H]3[C@@H]4CCN5C(=O)CCCC[C@]5(C)[C@H]4CC[C@]23C)c1,≤ 11,≥ 80,1 to 10,1 to 10,–,–
COc1cncc(C2=CC[C@H]3[C@@H]4CC[C@H]5CCOCC[C@]5(C)[C@H]4CC[C@]23C)c1,≤ 11,50 to 80,1 to 10,1 to 10,–,–
CC(=O)N[C@@H]1CC[C@@]2(C)C(=CC[C@H]3C4=CC=C(c5cccnc5)[C@@]4(C)CC[C@@H]32)C1,–,–,1 to 50,–,≤ 15,≥ 50
Cc1cncc(C2=CC[C@H]3[C@@H]4CC[C@H]5COC(=O)CC[C@]5(C)[C@H]4CC[C@]23C)c1,–,1 to 50,1 to 10,1 to 10,–,–
"COC1CC2[C@@H]3CC=C(n4ccnc4)[C@@]3(C)CC[C@@H]2[C@@]2(C)CCC3CC312 (single isomer, unassigned)",≤ 11,≥ 80,–,–,–,10 to 50
C[C@]12CCNC(=O)C=C1CC[C@@H]1[C@@H]2CC[C@]2(C)C(n3ccnc3)CC[C@@H]12 (stereo partly drawn),≤ 11,≥ 80,≥ 50,10 to 60,–,–

Compound,IC50 [1] [nM],inhibition at 0.01 µM [2] [%],half-life at 1 µM [3] [min],half-life at 1 µM [4] [min],IC50 [5] [nM],inhibition at 20 h [6] [%]
CC1=C2CC[C@@H]3[C@H](CC[C@]4(C)C(c5cccnc5)=CC[C@@H]34)[C@@]2(C)CCC1=O,≤ 11,–,–,–,≤ 15,≥ 50
C[C@]12CC[C@H]3[C@@H](CC=C4C[C@@H](O)CC[C@@]43C)C1=CC=C2n1ccnc1,≤ 11,≥ 80,≥ 50,–,–,–
Cc1cncc(C2=CC[C@H]3[C@@H]4CC[C@H]5COCCC[C@]5(C)[C@H]4CC[C@]23C)c1,≤ 11,50 to 80,1 to 10,1 to 10,–,–
"C[C@]12CCCOCC1CCC1C2CC[C@]2(C)C(c3cccnc3)=CC[C@@H]12 (single isomer, unassigned)",≤ 11,≥ 80,1 to 10,1 to 10,–,–
Cc1cncc(C2=CC[C@H]3[C@@H]4CCN5C(=O)CCCC[C@]5(C)[C@H]4CC[C@]23C)c1,≤ 11,50 to 80,1 to 10,1 to 10,–,–
C[C@]12CCNC(=O)C[C@@H]1CC[C@@H]1[C@@H]2CC[C@]2(C)C(n3ccnc3)=CC[C@@H]12,≤ 11,≥ 80,≥ 50,10 to 60,–,–
C[C@]12CCOCC[C@@H]1CC[C@@H]1[C@@H]2CC[C@]2(C)C(c3cccnc3)=CC[C@@H]12,≤ 11,≥ 80,1 to 10,1 to 10,–,–
Cc1cn(C2=CC[C@H]3[C@@H]4CCC5=CC(=O)NCC[C@]5(C)[C@H]4CC[C@]23C)cn1,≤ 11,50 to 80,10 to 60,10 to 60,–,–
C[C@]12CCC(=O)CCC1=CC[C@@H]1[C@@H]2CC[C@]2(C)C(n3ccnc3)=CC[C@@H]12,≤ 11,≥ 80,1 to 50,–,–,–
CC1C(O)CC[C@@]2(C)C1CC[C@@H]1[C@@H]2CC[C@]2(C)C(c3cccnc3)=CC[C@@H]12 (stereo partly drawn),≤ 11,–,–,–,≤ 15,10 to 50
Cc1cncc(C2=CC[C@H]3[C@@H]4CC(=O)C5CCCC[C@]5(C)[C@H]4CC[C@]23C)c1 (stereo partly drawn),≤ 11,–,1 to 10,1 to 10,–,–
C[C@]12CC(=O)C[C@@H]1CC[C@@H]1[C@@H]2CC[C@]2(C)C(n3ccnc3)=CC[C@@H]12,≤ 11,≥ 80,≥ 50,1 to 10,–,–
C[C@]12CCNC(=O)C=C1CC[C@@H]1[C@@H]2CC[C@]2(C)C(n3ncnn3)=CC[C@@H]12,–,≥ 80,1 to 10,1 to 10,–,–
CCc1cncc(C2=CC[C@H]3[C@@H]4CCN5CCCCC[C@]5(C)[C@H]4CC[C@]23C)c1,–,1 to 50,1 to 10,1 to 10,–,–
C[C@]12CCCCC1=CC[C@@H]1[C@@H]2CC[C@]2(C)C(c3cccnc3)=CC[C@@H]12,–,50 to 80,1 to 10,1 to 10,–,–
CCOc1cncc(C2=CC[C@H]3[C@@H]4CC[C@H]5COCCC[C@]5(C)[C@H]4CC[C@]23C)c1,≤ 11,50 to 80,1 to 10,1 to 10,–,–
C[C@]12CC(O)C[C@@H]1CC[C@@H]1[C@@H]2CC[C@]2(C)C(n3ccnn3)=CC[C@@H]12 (stereo partly drawn),50 to 80,≤ 11,–,–,–,–
C=Cc1cncc(C2=CC[C@H]3[C@@H]4CCN5C(=O)CCCC[C@]5(C)[C@H]4CC[C@]23C)c1,≤ 11,50 to 80,–,–,–,–
Cc1cncc(C2=CC[C@H]3[C@@H]4CC[C@H]5CCOCC[C@]5(C)[C@H]4CC[C@]23C)c1,≤ 11,50 to 80,–,–,–,–
